Literature values in US20040096496A1, “Sustained release pharmaceutical composition of a cephalosporin antibiotic” (Orchid Chemicals & Pharmaceuticals Limited, priority 2002, published 2004).

Details: background statement, species not given

half-life: 1.17 h
SMILES: CC=CC1=C(C(=O)O)N2C(=O)[C@@H](NC(=O)[C@H](N)c3ccc(O)cc3)[C@H]2SC1 [Cefprozil]
